Results published in publication PMC8200818, “SPECT/CT Imaging, Biodistribution and Radiation Dosimetry of a ^177Lu-DOTA-Integrin αvβ6 Cystine Knot Peptide in a Pancreatic Cancer Xenograft Model” (Frontiers in Oncology, 2021).

Legend:
[1] = target: T1, integrin αvβ6 (BxPC-3 cells) (Homo sapiens, UniProt P06756+P18564); test: Competition binding assay, BxPC-3; conditions: BxPC-3
T1 construct: endogenous in cells; host or cells: BxPC-3 (whole adherent cells)
Description: (§1) The reaction volume was made up to 30 µl with water. The reaction was carried out for 10 minutes at 80°C.
(§2) For competitive radioligand binding assay, approximately 50,000 cells (BxPC-3 or Capan-2) per well were seeded in a 96 well plate incubated overnight at 37°C. […] After 2 hours of incubation, cells were washed for 2-3 times with ice-cold washing buffer (50 mM Tris-HCl, pH 7.4, 125 mM NaCl, 0.05% BSA) and lysed with 1 N NaOH (80 µl/well). The lysed cells were transferred to vials and measured in a gamma counter (Wallac 1470 Wizard, Perkin Elmer, Waltham, MA, USA). Obtained cpm values were plotted with GraphPad Prism and the data fitted using nonlinear regression (one site - fit Ki, one site - fit logIC50).
(§3) All statistical analyses were performed using GraphPad Prism 5.04. IC50 values were determined by nonlinear sigmoidal curve fitting with variable slope setting. All presented data are based on independent experiments. Numerical data for this study have been deposited in an open data repository for public access: http://doi.org/10.5281/zenodo.4362503.

[2] = target: T2, integrin αvβ6 (Capan-2 cells) (Homo sapiens, UniProt P06756+P18564); test: Competition binding assay, Capan-2
T2 construct: endogenous in cells; host or cells: Capan-2 (whole adherent cells)
T2 sequence (P06756 31-889 limits assumed): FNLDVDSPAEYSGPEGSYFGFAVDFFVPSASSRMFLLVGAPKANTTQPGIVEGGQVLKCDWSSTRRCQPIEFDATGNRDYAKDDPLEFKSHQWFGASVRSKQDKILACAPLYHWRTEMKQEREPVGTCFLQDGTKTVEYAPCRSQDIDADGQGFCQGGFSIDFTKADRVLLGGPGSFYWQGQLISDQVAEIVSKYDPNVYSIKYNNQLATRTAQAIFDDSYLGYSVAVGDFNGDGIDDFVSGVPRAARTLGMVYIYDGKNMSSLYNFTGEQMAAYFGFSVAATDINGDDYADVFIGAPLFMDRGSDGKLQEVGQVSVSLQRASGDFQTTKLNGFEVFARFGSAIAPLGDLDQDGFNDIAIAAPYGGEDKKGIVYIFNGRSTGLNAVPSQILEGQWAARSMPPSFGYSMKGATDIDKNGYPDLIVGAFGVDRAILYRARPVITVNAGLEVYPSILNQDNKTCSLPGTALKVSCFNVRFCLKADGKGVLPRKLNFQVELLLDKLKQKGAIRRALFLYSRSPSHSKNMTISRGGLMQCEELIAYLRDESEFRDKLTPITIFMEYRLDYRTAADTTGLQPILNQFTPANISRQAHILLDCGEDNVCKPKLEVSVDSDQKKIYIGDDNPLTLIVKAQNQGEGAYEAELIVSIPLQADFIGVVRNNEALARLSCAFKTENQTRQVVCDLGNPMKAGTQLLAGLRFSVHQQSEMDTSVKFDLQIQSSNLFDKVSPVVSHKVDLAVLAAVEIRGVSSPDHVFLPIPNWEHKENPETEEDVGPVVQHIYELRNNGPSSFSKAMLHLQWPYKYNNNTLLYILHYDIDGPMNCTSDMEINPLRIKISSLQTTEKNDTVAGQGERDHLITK
T2 sequence (P06756 891-1048 partner limits assumed): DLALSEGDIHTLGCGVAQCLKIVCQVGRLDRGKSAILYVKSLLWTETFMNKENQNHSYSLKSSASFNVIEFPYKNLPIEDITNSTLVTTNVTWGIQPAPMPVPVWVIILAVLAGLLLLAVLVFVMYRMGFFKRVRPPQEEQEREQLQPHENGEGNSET
T2 sequence (P18564 22-788): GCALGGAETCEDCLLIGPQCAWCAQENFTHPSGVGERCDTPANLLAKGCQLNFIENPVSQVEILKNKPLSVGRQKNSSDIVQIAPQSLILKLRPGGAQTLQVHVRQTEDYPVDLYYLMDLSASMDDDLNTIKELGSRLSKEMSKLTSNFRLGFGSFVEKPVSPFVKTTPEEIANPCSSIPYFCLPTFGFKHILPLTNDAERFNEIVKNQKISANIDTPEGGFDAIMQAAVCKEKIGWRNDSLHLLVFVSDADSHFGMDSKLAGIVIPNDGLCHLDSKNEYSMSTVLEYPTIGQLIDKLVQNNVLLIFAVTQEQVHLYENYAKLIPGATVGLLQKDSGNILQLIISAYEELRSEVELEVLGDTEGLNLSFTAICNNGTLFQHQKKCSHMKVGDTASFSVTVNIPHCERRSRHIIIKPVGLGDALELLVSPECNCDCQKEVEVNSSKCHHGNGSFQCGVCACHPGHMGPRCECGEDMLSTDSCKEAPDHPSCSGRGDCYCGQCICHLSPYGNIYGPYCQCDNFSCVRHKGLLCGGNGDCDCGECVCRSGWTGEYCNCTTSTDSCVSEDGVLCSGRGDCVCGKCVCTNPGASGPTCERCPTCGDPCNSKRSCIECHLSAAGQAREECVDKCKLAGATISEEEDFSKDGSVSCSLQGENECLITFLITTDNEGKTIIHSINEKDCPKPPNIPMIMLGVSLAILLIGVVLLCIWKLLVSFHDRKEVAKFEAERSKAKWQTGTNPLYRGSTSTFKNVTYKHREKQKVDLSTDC
Description: as §1, §2, §3

Capan-2 xenografts = conditions: day 1 versus day 8 after injection; single dose; listed as DOTA-integrin αvβ6 knottin
integrin αvβ6 = conditions: cited from earlier work
Excerpt: Cystine knot peptides (knottins) represent small peptides of approximately 4 kDa with three threaded disulfide bonds that form a rigid topological knot constraining the peptide’s conformational flexibility. Such a structural motif is known as a cystine knot ([21], [22]). One of the advantages of knottins is the high variability of backbone residues that may be used to modulate tumor and kidney uptake ([23]). Knottins are well suited for in vivo tumor-targeting applications as their disulfide-bonded core confers outstanding thermal stability and resistance against proteolytic degradation; moreo ...

[3] = cited from earlier work
[4] = displacement of ^125I-DOTA-integrin αvβ6 knottin (100,000 cpm), 2 h, pH 7.4, mean ± S.E.M. (3 ≤ n ≤ 4), read-out: Inhibitory constant (Ki)

T1 sequence (P06756 31-889 limits assumed): as the sequence (P06756 31-889 limits assumed) above
T1 sequence (P06756 891-1048 partner limits assumed): as the sequence (P06756 891-1048 partner limits assumed) above
T1 sequence (P18564 22-788): as the sequence (P18564 22-788) above

Compound | Ki [1, 4] | Ki [2, 4] | Tissue structure of xenografts (H&E) (Capan-2 xenografts) | Effect of DOTA / ^natLu chelation on affinity [1] | Effect of DOTA / ^natLu chelation on affinity [2] | Binding affinity for integrin αvβ6 (integrin αvβ6) | Stability and affinity to the receptor in vivo [3] | Tumor uptake (previous) ([3]; in vivo)
CC[C@H](C)[C@@H]1NC(=O)[C@@H](NC(=O)CNC(=O)CN2CCN(CC(=O)O)CCN(CC(=O)O)CCN(CC(=O)O)CC2)CSSC[C@@H]2NC(=O)[C@H](C)NC(=O)CNC(=O)[C@@H]3CCCN3C(=O)[C@@H]3CSSC[C@@H](C(=O)NCC(=O)O)NC(=O)[C@H](Cc4ccc(O)cc4)NC(=O)CNC(=O)[C@H](CC(N)=O)NC(=O)CNC(=O)[C@H](CCCNC(=N)N)NC(=O)[C@H](CSSC[C@H](NC(=O)[C@H](CCCNC(=N)N)NC(=O)[C@H](Cc4ccccc4)NC(=O)[C@H](CC(C)C)NC(=O)[C@H](CC(C)C)NC(=O)[C@H]([C@@H](C)O)NC(=O)CNC(=O)[C@H](CC(C)C)NC(=O)[C@H](CC(=O)O)NC(=O)[C@H]([C@@H](C)O)NC(=O)[C@H](CCCNC(=N)N)NC(=O)CNC(=O)[C@H](CC(N)=O)NC(=O)[C@H](CC(C)C)NC1=O)C(=O)N[C@@H](CCCNC(=N)N)C(=O)N[C@@H](CCCNC(=N)N)C(=O)N[C@@H](CC(=O)O)C(=O)N[C@@H](CO)C(=O)N[C@@H](CC(=O)O)C(=O)N3)NC(=O)[C@H]([C@@H](C)CC)NC2=O [DOTA knottin] | 1.69 ± 1.3 nM | 9.46 ± 5.21 nM | no significant impact was observed | – | – | – | – | –
CC[C@H](C)[C@@H]1NC(=O)[C@@H](NC(=O)CNC(=O)CN2CCN(CC(=O)O)CCN(CC(=O)O)CCN(CC(=O)O)CC2)CSSC[C@@H]2NC(=O)[C@H](C)NC(=O)CNC(=O)[C@@H]3CCCN3C(=O)[C@@H]3CSSC[C@@H](C(=O)NCC(=O)O)NC(=O)[C@H](Cc4ccc(O)cc4)NC(=O)CNC(=O)[C@H](CC(N)=O)NC(=O)CNC(=O)[C@H](CCCNC(=N)N)NC(=O)[C@H](CSSC[C@H](NC(=O)[C@H](CCCNC(=N)N)NC(=O)[C@H](Cc4ccccc4)NC(=O)[C@H](CC(C)C)NC(=O)[C@H](CC(C)C)NC(=O)[C@H]([C@@H](C)O)NC(=O)CNC(=O)[C@H](CC(C)C)NC(=O)[C@H](CC(=O)O)NC(=O)[C@H]([C@@H](C)O)NC(=O)[C@H](CCCNC(=N)N)NC(=O)CNC(=O)[C@H](CC(N)=O)NC(=O)[C@H](CC(C)C)NC1=O)C(=O)N[C@@H](CCCNC(=N)N)C(=O)N[C@@H](CCCNC(=N)N)C(=O)N[C@@H](CC(=O)O)C(=O)N[C@@H](CO)C(=O)N[C@@H](CC(=O)O)C(=O)N3)NC(=O)[C@H]([C@@H](C)CC)NC2=O [^natLu DOTA knottin, metal not drawn] | – | – | – | did not compromise the high affinity of the tracer | did not compromise the high affinity of the tracer | – | – | –
CC[C@H](C)[C@@H]1NC(=O)[C@@H](NC(=O)CN)CSSC[C@@H]2NC(=O)[C@H](C)NC(=O)CNC(=O)[C@@H]3CCCN3C(=O)[C@@H]3CSSC[C@@H](C(=O)NCC(=O)O)NC(=O)[C@H](Cc4ccc(O)cc4)NC(=O)CNC(=O)[C@H](CC(N)=O)NC(=O)CNC(=O)[C@H](CCCNC(=N)N)NC(=O)[C@H](CSSC[C@H](NC(=O)[C@H](CCCNC(=N)N)NC(=O)[C@H](Cc4ccccc4)NC(=O)[C@H](CC(C)C)NC(=O)[C@H](CC(C)C)NC(=O)[C@H]([C@@H](C)O)NC(=O)CNC(=O)[C@H](CC(C)C)NC(=O)[C@H](CC(=O)O)NC(=O)[C@H]([C@@H](C)O)NC(=O)[C@H](CCCNC(=N)N)NC(=O)CNC(=O)[C@H](CC(N)=O)NC(=O)[C@H](CC(C)C)NC1=O)C(=O)N[C@@H](CCCNC(=N)N)C(=O)N[C@@H](CCCNC(=N)N)C(=O)N[C@@H](CC(=O)O)C(=O)N[C@@H](CO)C(=O)N[C@@H](CC(=O)O)C(=O)N3)NC(=O)[C@H]([C@@H](C)CC)NC2=O [knottin] | – | – | – | did not change upon either the addition of a DOTA chelator moiety or incorporation of natural non-radioactive lutetium | did not change upon either the addition of a DOTA chelator moiety or incorporation of natural non-radioactive lutetium | low single-digit nanomolar binding affinity | not compromised in vivo | favorable tumor uptake
